One series in a line: Solubility. In kind it is physicochemical.
In series [1] the test system is cholesterol in blood serum. Conditions: Merck Index, 12th Edition; cited from earlier work.
The next series addresses SAH hydrolase (Homo sapiens, UniProt P23526). An excerpt:
It is possible to achieve favourable changes in the blood plasma cholesterol pattern by reducing the molar ratio of total cholesterol/phospholipid ratio and/or changing the phospolipid molar ratio of PC/PE and/or inhibiting enzymatically controlled reactions where PC and PE is directly or indirectly via the SAM/SAH cycle involved. The following theory has been formulated: • Step 1: Total PL and PL (phospholipids) composition may be changed by kinetics of the SAM and SAH cycle. • Step 2: SAM and SAH concentrations are inhibited/stimulated by intervening in the methionine and cysteine metabolism • Step 3: In this metabolism SAH degradation to adenosine and homocysteine is an enzymatic reaction catalysed by SAH hydrolase. By inhibiting partially, not totally, SAH hydrolase, the concentration of SAH will rise affecting the SAM/SAH ratio and step 1 will be executed.
Eritadenine has been tested for use in the above model.

For series [2], the system named is cholesterol in blood serum. In words: Blood serum cholesterol reduction by eritadenine. In kind it is in vivo, human. The text has this:
As regards the therapeutic action of eritadenine it should be noted that it acts endogenously in a dose-dependent manner and can be used as a functional food component in small doses for reducing the total cholesterol of normal human beings. By contrast, existing methods provide for food components having an exogenous effect on the cholesterol balance and these dietary components therefore have to be used in extremely large doses in comparison to eritadenine. […] The present invention makes it possible to produce a functional food component which acts in a druglike manner influencing human phospholipidic metabolic step sequences, still preserving the true features of a functional food component. As mentioned above, eritadenine has the additive effects of not only dose-dependent, endogenous cholesterol-depression but also therapeutic effects like endogenous linoleic acid formation and blood plasma viscosity reduction.
It acts in a drug-like manner, inhibiting the endogenous synthesis of cholesterol metabolism and the enterohepatic fat circle. d-eritadenine is effective in very low absorbed doses, at 1 ppm+-level, ensuring safety and essential metabolic step preservation.
Thus, the addition of eritadenine, especially d-eritadenine, to an exogenously acting existing functional food will more than double the cholesterol-depressing effect due to enterohepatic and exterohepatic multiplicatory effects. Mathematically consecutive 10% reductions would give […] total reduction, and consecutive 15% reductions would give 28% total reduction, by the present invention, due to the feedback inhibition created by the simultaneous exogenous and endogenous actions of the food components, a greater decrease of the cholesterol level will be achieved. The food compositions according to the present invention may therefore comprise a (conventional) food component having an exterohepatic cholesterol depressing effect. Such a food component can be selected from the group of fibers, chitosan, tocotrienols, plant sterols, stanol esters and sitostanol esters. […]

The structures appear in SMILES notation.

Sequence of SAH hydrolase (P23526 whole entry): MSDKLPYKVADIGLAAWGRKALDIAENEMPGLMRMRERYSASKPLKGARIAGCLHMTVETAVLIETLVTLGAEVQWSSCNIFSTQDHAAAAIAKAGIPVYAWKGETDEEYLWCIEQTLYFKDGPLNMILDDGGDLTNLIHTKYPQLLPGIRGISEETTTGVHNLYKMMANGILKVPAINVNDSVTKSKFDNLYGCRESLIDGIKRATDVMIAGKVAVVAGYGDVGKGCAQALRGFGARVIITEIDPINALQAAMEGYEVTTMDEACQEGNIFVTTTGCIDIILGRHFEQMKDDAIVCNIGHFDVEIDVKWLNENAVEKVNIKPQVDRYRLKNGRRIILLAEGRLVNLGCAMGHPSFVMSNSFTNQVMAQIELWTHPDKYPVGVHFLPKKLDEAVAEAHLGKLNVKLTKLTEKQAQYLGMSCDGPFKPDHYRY

As for `Nc1ncnc2c1ncn2C[C@@H](O)[C@@H](O)C(=O)O` [Eritadenine], the solubility in fats entry in “Solubility” is reported as “soluble in fats”. Further, the “effect on concentration of cholesterol in blood serum” value in series [1] is “capable of reducing the concentration of cholesterol in blood serum”.
As to `Nc1ncnc2c1ncn2C[C@@H](O)[C@@H](O)C(=O)O` [d-eritadenine, 2(R), 3(R)-dihydroxy-4-(9-adenyl)butyric acid], at SAH hydrolase, the “dose needed for SAH hydrolase inhibition” value is listed as “inhibits already in small doses”; the “extent of SAH hydrolase inhibition” value was “inhibits partially, no total blocking”; the “speed of SAH hydrolase inhibition” value was “rapid”. In series [2] (5 to 50 mg as dose response, depending on the dietary cholesterol amount), this compound yielded a reduction of cholesterol of more than 20%. In addition, the “effective absorbed dose level” value in series [2] (absorbed dose) is recorded as not below 1 ppm. Also, the “relative efficiency among eritadenine isomers” value in series [2] (compared with l-eritadenine (2S,3S) and threo isomers) is recorded as “most efficient”.

The values above are taken from patent US7067146B2, “Food compositions and methods of preparing the same” (Eritocap Oy, priority 1999, dated 2006).
